Test results as given in patent US11504358B2, “Extended release methazolamide formulation” (Effcon Laboratories, Inc., priority 2017, dated 2022).

Tests used:
[1] = Methazolamide particle size testing, sonic shifter (sieves); type: physicochemical
Description: Methazolamide particle size testing was performed on unmilled methazolamide particles and methazolamide particles milled in-house and by a third party vendor according to the above milling procedure. Methazolamide particle size testing was conducted using a Mastersizer laser particle size analyzer from Malvern Instruments or a sonic shifter. The results of the particle size testing for methazolamide particles milled in-house, as measured by a laser particle size analyzer, are as follows:
The results of the particle size testing for unmilled methazolamide particles, methazolamide particles milled in-house, and methazolamide particles milled by a third party vendor, as measured by a sonic shifter, are as follows: […]

[2] = Density of methazolamide particles; type: physicochemical
[3] = Methazolamide particle size testing, laser particle size analyzer; type: physicochemical; conditions: particles milled in-house
Description: The following conventions apply when describing particle size distribution. D(v, 0.1) means that 10% of the particles are smaller than this diameter. D(v, 0.5) is the median particle diameter. D(v, 0.9) means that 90% of the particles are smaller than this diameter.
Methazolamide particle size testing was performed on unmilled methazolamide particles and methazolamide particles milled in-house and by a third party vendor according to the above milling procedure. Methazolamide particle size testing was conducted using a Mastersizer laser particle size analyzer from Malvern Instruments or a sonic shifter. The results of the particle size testing for methazolamide particles milled in-house, as measured by a laser particle size analyzer, are as follows: […]

[4] = in water, alcohol and acetone; cited from earlier work

Row | Structure (SMILES) | % Retained, Fines Collector [1] [%] | % Retained, Sieve # 20 (840 μm) [1] [%] | % Retained, Sieve # 40 (420 μm) [1] [%] | % Retained, Sieve # 80 (177 μm) [1] [%] | % Retained, Sieve # 100 (149 μm) [1] [%] | % Retained, Sieve # 140 (105 μm) [1] [%] | % Retained, Sieve # 200 (74 μm) [1] [%] | Bulk Density [2] [g/mL] | Trapped Density [2] [g/mL] | D(v, 0.1) [3] [μm] | D(v, 0.5) [3] [μm] | D(v, 0.9) [3] [μm] | Solubility [4]
1 | CC(=O)/N=c1/sc(S(N)(=O)=O)nn1C [Milled API (in-house)] | 16.51 | 1.23 | 1.52 | 15.27 | 19.54 | 32.92 | 13.00 | 0.56 | 0.99 | – | – | – | –
2 | CC(=O)/N=c1/sc(S(N)(=O)=O)nn1C [Sample 3] | – | – | – | – | – | – | – | – | – | 48.42 | 128.46 | 267.26 | –
3 | CC(=O)/N=c1/sc(S(N)(=O)=O)nn1C [Sample 2] | – | – | – | – | – | – | – | – | – | 47.67 | 132.34 | 269.30 | –
4 | CC(=O)/N=c1/sc(S(N)(=O)=O)nn1C [Milled API (3rd party)] | 15.56 | 5.15 | 6.14 | 21.88 | 17.14 | 21.90 | 12.29 | 0.53 | 1.00 | – | – | – | –
5 | CC(=O)/N=c1/sc(S(N)(=O)=O)nn1C [Sample 1] | – | – | – | – | – | – | – | – | – | 42.15 | 121.45 | 255.75 | –
6 | CC(=O)N=c1sc(S(N)(=O)=O)nn1C [Methazolamide, N-[5-(aminosulfonyl)-3-methyl-1,3,4-thiadiazol-2(3H)-ylidene]acetamide] | – | – | – | – | – | – | – | – | – | – | – | – | slightly soluble
7 | CC(=O)/N=c1/sc(S(N)(=O)=O)nn1C [Unmilled API] | 0.83 | 0.09 | 7.95 | 75.05 | 8.04 | 6.01 | 2.03 | 0.92 | 1.03 | – | – | – | –
